From ChEMBL document CHEMBL1150880, “Novel and insecticidal isobutylamides from dinosperma erythrococca” (J Nat Prod, 1998)
Activity calls are given as the source filed them. The calls are words filed in the database; no cut-off is given here.

Key:
[1] = test system: Musca domestica; test: Insecticidal activity against housefly at 1000 ppm after 3 to 5 days; type: functional, organism-based
[2] = test system: Musca domestica; test: Insecticidal activity against housefly at 2500 ppm after 3 to 5 days; type: functional, organism-based
[3] = test system: Heliothis virescens; test: Insecticidal activity against tobacco budworm at 1000 ppm after 3 to 5 days; type: functional, organism-based
[4] = test system: Musca domestica; test: Insecticidal activity against housefly after 3 to 5 days relative to permethrin; type: functional
[5] = test system: Musca domestica; test: Insecticidal activity against housefly after 3 to 5 days; type: functional, organism-based
[6] = test system: Musca domestica; test: Insecticidal activity against housefly after 3 to 5 days relative to cypermethrin; type: functional, organism-based
[7] = test system: Musca domestica; test: Insecticidal activity against housefly at 500 ppm after 3 to 5 days; type: functional, organism-based
[8] = test system: Heliothis virescens; test: Insecticidal activity against tobacco budworm at 500 ppm after 3 to 5 days; type: functional
[9] = test system: Heliothis virescens; test: Insecticidal activity against tobacco budworm at 2500 ppm after 3 to 5 days; type: functional, organism-based
[10] = test system: Heliothis virescens; test: Insecticidal activity against tobacco budworm after 3 to 5 days; type: functional, organism-based
[11] = test system: Heliothis virescens; test: Insecticidal activity against tobacco budworm after 3 to 5 days relative to profenofos; type: functional

For `CCCCC/C=C/C=C/C(=O)NCC(C)C`, the Activity [1] was “inactive”, the Activity [2] was “Active” and the Activity [3] was “inactive”.

`CC(C)CNC(=O)/C=C/C=C/CC1CCc2ccc(Cl)cc2C1` (stereo not given) was tested, and the Activity [4] was 40%.

For `CC(C)CNC(=O)/C=C/C=C/Cc1ccccc1`, the EC50 [5] was 59.9 ppm, the Activity [6] was 1.8% and the Activity [7] was “Active”.

Molecule `CC(C)(O)CNC(=O)/C=C/C=C/Cc1ccccc1` has an Activity [8] of 80%.

With `CC(C)CNC(=O)CC1CCc2cc3c(cc2O1)OCO3` (stereo not given) the Activity [7] was “inactive” and the Activity [8] was “inactive”.

For `COc1c2c(cc3ccoc13)CCC(C/C=C/C=C/C(=O)NCC(C)C)O2` (stereo not given), the Activity [7] was “inactive” and the Activity [8] was “inactive”.

With `CC(C)CNC(=O)/C=C/c1ccc2c(c1)OCO2` the Activity [2] was “inactive” and the Activity [9] was “inactive”.

For `CC(C)CNC(=O)/C=C/C=C/CC1CCc2cc3c(cc2O1)OCO3` (stereo not given) [ERYTHROCOCCAMIDE A], the EC50 [5] was 20.2 ppm, the EC50 [6] was 3 ppm and the Activity [7] was “Active”. It also gave an EC50 [10] of 74.2 ppm, an Activity [11] of 9.9% and an Activity [4] of 9%.
